For six compounds, MIC, Minimum inhibitory concentration and melting point results are on record in patent US20040127433A1, “Erythromycin derivative and medicament comprising the same” (priority 2000, published 2004).

One data set deals with M.avium 20092. The data set is described as follows: Antibacterial activity (minimum inhibitory concentration), agar dilution method, clarithromycin-resistant strain. The following applies: M. avium 20092 (clarithromycin-resistant), 7H11 agar, 37° C., 7 days; for MIC: Mycobacterium avium, 168 h. The class given is cell-based, Mycobacterium avium. The method, then:
(§1) In order to evaluate excellent efficacy of the compounds of the present invention, their antibacterial spectrums against a typical acid-fast mycobacteria were measured. Clarithromycin, rifampicin and 4″-O-acetylerythromycin A 9-(O-methyloxime) [a compound disclosed in the Japanese Patent Unexamined Publication (KOKAI) No.63-107921/1988] were used as reference compounds. Ac in the formula represents acetyl group. [drawing 1313]
(§2) Antibacterial Activity Against a Typical Acid-Fast Mycobacteria
(§3) Antibacterial activities (minimum inhibitory concentrations) against clinical isolates of a typical acid-fast mycobacteria were measured by the agar dilution method according to the standard method of the Japan Society of Chemotherapy. About 5 μl of bacterial suspension (adjusted to […]) were spotted on the 7H11 agar plates containing the test compounds. The minimum inhibitory concentrations were determined by the growth or no growth of the bacteria after incubation at 37° C. for 7 days. The abbreviation M in the table represents Mycobacterium. The compounds of the present invention had more excellent antibacterial activity than the reference compounds against a typical acid-fast mycobacteria including clarithromycin-resistant strains (M.avium 20092 and other bacteria).

The subject of data set [1] is clinical isolates of a typical acid-fast mycobacteria. The data set is described as follows: microbe, parasite or virus in culture. It counts as cell-based, Mycobacterium. The following applies: 7H11 agar, 37° C., 7 days; for MIC: 168 h. The method, then: as §1, §2, §3
Setting [2] is: Mycobacterium avium, read-out: Minimum inhibitory concentration, M. avium 20034.
[3] abbreviates: Mycobacterium avium, read-out: Minimum inhibitory concentration, M. avium 20045.
Setting [4] is: Mycobacterium avium, read-out: Minimum inhibitory concentration, M. avium 20096.
[5] abbreviates: Mycobacterium intracellulare, read-out: Minimum inhibitory concentration, M. intracellulare 20066.
[6] abbreviates: Mycobacterium intracellulare, read-out: Minimum inhibitory concentration, M. intracellulare 20067.
Where [7] appears, read: Mycobacterium intracellulare, read-out: Minimum inhibitory concentration, M. intracellulare 20073.
Setting [8] is: Mycobacterium intracellulare, read-out: Minimum inhibitory concentration, M. intracellulare 20075.

Values after ≈ are worked out from the molar mass of the structure shown. Where two headings read alike, the source gives them in different places.

Turning to `CC[C@H]1OC(=O)[C@H](C)[C@@H](O[C@H]2C[C@@](C)(OC)[C@@H](O)[C@H](C)O2)[C@H](C)[C@@H](O[C@@H]2O[C@H](C)C[C@H](N(C)C)[C@H]2O)[C@](C)(OC)C[C@@H](C)C(=O)[C@H](C)[C@@H](O)[C@]1(C)O` [compound 1, Clarithromycin], the MIC in the data set with M.avium 20092 is over 50 µg/mL; in data set [1] (setting [2]) it was 3.13 µg/mL (≈ 4.18 µM); in data set [1] (setting [3]), 1.56 µg/mL (≈ 2.09 µM); in data set [1] (setting [4]), over 50 µg/mL; in data set [1] (setting [5]) it was 3.13 µg/mL (≈ 4.18 µM); in data set [1] (setting [6]), 1.56 µg/mL (≈ 2.09 µM). In addition, the MIC in data set [1] (setting [7]) was determined as 1.56 µg/mL (≈ 2.09 µM); in data set [1] (setting [8]) it was 3.13 µg/mL (≈ 4.18 µM).

`CC[C@H]1OC(=O)[C@H](C)[C@@H](O[C@H]2C[C@@](C)(OC)[C@@H](OC(C)=O)[C@H](C)O2)[C@H](C)[C@@H](O[C@@H]2O[C@H](C)C[C@H](N(C)C)[C@H]2O)[C@](C)(O)C[C@@H](C)C(=NOC)[C@H](C)[C@@H](O)[C@]1(C)O` [compound 3, 4″-O-acetylerythromycin A 9-(O-methyloxime)]: the Minimum inhibitory concentration with M.avium 20092 was over 50 µg/mL; in data set [1] (M. avium 20034) it was over 50 µg/mL; in data set [1] (M. avium 20045), 12.5 µg/mL (≈ 15.5 µM); in data set [1] (M. avium 20096), over 50 µg/mL; in data set [1] (M. intracellulare 20066), 12.5 µg/mL (≈ 15.5 µM); in data set [1] (M. intracellulare 20067), 6.25 µg/mL (≈ 7.76 µM). Moreover, the Minimum inhibitory concentration in data set [1] (M. intracellulare 20073) and in data set [1] (M. intracellulare 20075) was 12.5 µg/mL (≈ 15.5 µM) throughout.

Take “4″-O-Acetyl-2′-O-benzylaminocarbonylerythromycin A 9-[O-(3-cyclo-hexylpropyl)oxime] [Example 40]”: the Minimum inhibitory concentration with M.avium 20092 was found to be 0.78 µg/mL; in data set [1] (M. avium 20034) it was 0.39 µg/mL; in data set [1] (M. avium 20045), 0.78 µg/mL; in data set [1] (M. avium 20096), 0.78 µg/mL; in data set [1] (M. intracellulare 20066) it was 0.20 µg/mL; in data set [1] (M. intracellulare 20067) it was 0.78 µg/mL. Moreover, the Minimum inhibitory concentration in data set [1] (M. intracellulare 20073) and in data set [1] (M. intracellulare 20075) was 0.78 µg/mL each time.

As to `CCCCCCCCON=C1[C@H](C)CC(C)(O)[C@H](O[C@@H]2O[C@H](C)C[C@H](N(C)C)[C@H]2OC(=O)NCc2ccccc2)C[C@H](O[C@H]2C[C@@](C)(OC)[C@@H](OC(C)=O)[C@H](C)O2)[C@@H](C)C(=O)O[C@H](CC)[C@@](C)(O)[C@H](O)[C@H]1C` (some centres unmarked) [Example 94], the MIC amounted to 0.39 µg/mL (≈ 0.381 µM) in the data set on M.avium 20092; 0.39 µg/mL (≈ 0.381 µM) in data set [1] (setting [2]); 0.78 µg/mL (≈ 0.763 µM) in data set [1] (setting [3]); 0.39 µg/mL (≈ 0.381 µM) in data set [1] (setting [4]); 0.39 µg/mL (≈ 0.381 µM) in data set [1] (setting [5]); 0.39 µg/mL (≈ 0.381 µM) in data set [1] (setting [6]). The MIC in data set [1] (setting [7]) and in data set [1] (setting [8]) was 0.39 µg/mL (≈ 0.381 µM) each time.

In turn, `CC[C@H]1OC(=O)[C@H](C)[C@@H](O[C@H]2C[C@@](C)(OC)[C@@H](O)[C@H](C)O2)C[C@@H](O[C@@H]2O[C@H](C)C[C@H](N(C)C)[C@H]2OC(=O)NCc2ccccc2)C(C)(O)C[C@@H](C)C(=NOCCCOc2ccccc2)[C@H](C)[C@@H](O)[C@]1(C)O` (some centres unmarked) [Example 34] registered a melting point of 107 to 110 °C.

As to `CO[C@H]1/C=C/O[C@@]2(C)Oc3c(C)c(O)c4c(O)c(c(/C=N/N5CCN(C)CC5)c(O)c4c3C2=O)NC(=O)/C(C)=C\C=C\[C@H](C)[C@H](O)[C@@H](C)[C@@H](O)[C@@H](C)[C@H](OC(C)=O)[C@@H]1C` [compound 2, rifampicin], the MIC came out at 50 µg/mL (≈ 60.8 µM) with M.avium 20092; 12.5 µg/mL (≈ 15.2 µM) in data set [1] (setting [2]); 3.13 µg/mL (≈ 3.8 µM) in data set [1] (setting [3]); 3.13 µg/mL (≈ 3.8 µM) in data set [1] (setting [4]); 3.13 µg/mL (≈ 3.8 µM) in data set [1] (setting [5]); 1.56 µg/mL (≈ 1.9 µM) in data set [1] (setting [6]). Also, the MIC in data set [1] (setting [7]) and in data set [1] (setting [8]) was 3.13 µg/mL (≈ 3.8 µM) throughout.
